From US20190105367A1, “ANTIMICROBIAL 4-OXOQUINOLIZINES” (Emergent Product Development Gaithersburg Inc., priority 2011, published 2019)
Converted amounts (≈) assume the structure as drawn. Where two headings read alike, the source gives them in different places.

Key:
A. baumannii A473 = assay: MIC without and with sub-inhibitory polymyxin B (Example 4); format: cell-based, Acinetobacter baumannii; settings: +0.06 μg/ml PB, 2nd experiment
[1] = system: GN56 Acinetobacter baumannii levofloxacin resistant clinical isolate; assay: Chequerboard synergy with polymyxin B, FICI (Example 6); format: cell-based
Text: (§1) A chequerboard technique was used to identify possible synergistic or antagonistic interactions between the 4-oxoquinolizines compounds, levofloxacin and polymyxin B. Levofloxacin was included as a control. […] Final dilutions were made in Mueller-Hinton broth, the specific test medium used for MIC determinations according to CLSI guidelines (CLSI. Methods for Dilution Antimicrobial Susceptibility Tests for Bacteria That Grow Aerobically; Approved Standard-Eighth Edition (2009). CLSI Document M07-A8. CLSI, Wayne, Pa. 19087-1898, USA.). The test medium used was a cation-adjusted Mueller-Hinton Broth II (Becton Dickinson UK Ltd., Oxford Science Park, Oxford, UK, OX4 4DQ).
(§2) The compounds 2, 33 and 35, as well as levofloxacin were tested in combination with polymyxin B on the following isolates: GN31 Acinetobacter baumannii—antibiotic susceptible clinical isolate, GN52 Acinetobacter baumannii—levofloxacin resistant clinical isolate, GN56 Acinetobacter baumannii—levofloxacin resistant clinical isolate, GN48 Klebsiella pneumoniae—NCTC 13443—NDM-1-metallo-β-lactamase and GN10 Pseudomonas aeruginosa—ATCC 27853—antibiotic susceptible reference isolate. All isolates are from the collection maintained at Quotient Bioresearch Ltd., Cambridge, UK.
(§3) The MIC values for the compounds and polymyxin B and levofloxacin were determined by broth microdilution following CLSI guidelines, and the MICs of agents in combination were determined as described by Pillai et. al (Pillai S K, Moellering R C Jr, Eliopoulis G M; Antimicrobial Combinations in Antibiotics in Laboratory Medicine 5th Edition (V. Lorian Ed) (2005) p 365-440). Initial MIC results were used to determine the microtiter plate patterns for the chequerboards. A suitable doubling dilution concentration range was selected such that the combination antibiotic range was at least two concentrations above and four concentrations below the MIC for each isolate. A fixed range of 0.008 to 8 mg/L was tested for polymyxin B except in the case of A. baumannii GN31 where a range of 0.004 to 4 mg/L was tested when in combination with the compounds 2, 33 and 35 as well as levofloxacin.
(§4) From the raw data, fractional inhibitory concentration indices (FICI) were determined for the compounds of the invention and levofloxacin together with polymyxin B for each isolate as follows:
(§5) FICX=concentration of the combination antibiotic in a particular row MIC of the combination drug alone
(§6) FICY=MIC of polymyxin B in combination[…]MIC of the polymyxin B alone
(§7) Additionally isobolograms were created to represent the same data visually. Here, the MIC of polymyxin B was plotted against every concentration of the combination antibiotic up to the MIC.

[2] = system: GN48 Klebsiella pneumoniae NCTC 13443 NDM-1-β-lactamase producing isolate; assay: as above; format: cell-based
Text: as §1, §2, §3, §4, §5, §6, §7

[3] = system: GN52 Acinetobacter baumannii levofloxacin resistant clinical isolate; assay: as above; format: cell-based
Text: as §1, §2, §3, §4, §5, §6, §7

[4] = system: GN31 Acinetobacter baumannii antibiotic susceptible isolate; assay: as above; format: cell-based
Text: as §1, §2, §3, §4, §5, §6, §7

E. cloacae 13047 = assay: MIC, standard panel of Gram-positive and Gram-negative strains (Example 2); format: cell-based, Enterobacter cloacae; settings: Enterobacter cloacae, 13047; read-out: MIC E. cloacae 13047
[5] = system: Acinetobacter sp. (H064200250); assay: Preliminary MBC without and with sub-inhibitory polymyxin B (Example 4); format: cell-based; settings: Acinetobacter, preliminary MBC
Procedure: The plates were incubated for 18-20 hours at 37° C. The MBC was read as the lowest concentration at which colony growth was ca. 90% less than the positive control (i.e. usually where single colonies or no colonies were observed).

E. faecium 19434 = assay: MIC, standard panel of Gram-positive and Gram-negative strains (Example 2); format: cell-based; settings: Enterococcus faecium
S. aureus 101 = assay: as above; format: cell-based; settings: Staphylococcus aureus
A. baumannii A387 [6] = assay: MIC without and with sub-inhibitory polymyxin B (Example 4); format: cell-based, Acinetobacter baumannii; settings: for MIC without PB/MIC + PB: A. baumannii A387; for MIC: Acinetobacter baumannii
A. baumanii 19606 = assay: MIC, standard panel of Gram-positive and Gram-negative strains (Example 2); format: cell-based; settings: Acinetobacter baumannii
A. baumannii A387 [7] = assay: Preliminary MBC without and with sub-inhibitory polymyxin B (Example 4); format: cell-based, Acinetobacter baumannii; settings: Acinetobacter baumannii
Cytotoxicity (Example 7) = format: cell-based; settings: human, HEPG2 V1 cells
Procedure: The 4-oxoquinolizine compounds of the invention preferably have a low cytotoxicity against human cells. […].
Cytotoxicity was determined for the instant 4-oxoquinolizine compounds which show low cytotoxicity. (see Table 17 following). […]

E. faecalis 29212 = assay: MIC, standard panel of Gram-positive and Gram-negative strains (Example 2); format: cell-based, Enterococcus faecalis; settings: Enterococcus faecalis, 29212; read-out: MIC E. faecalis 29212
S. epidermis 12228 = assay: as above; format: cell-based, Staphylococcus epidermis; settings: Staphylococcus
S. pneumoniae 49619 = assay: MIC, panel of quinolone-resistant strains (Example 2); format: cell-based, Streptococcus pneumoniae; settings: Streptococcus pneumoniae, 49619; LEV S; read-out: MIC S. pneumoniae 49619
S. aureus 25923 = assay: MIC, standard panel of Gram-positive and Gram-negative strains (Example 2); format: cell-based; settings: Staphylococcus aureus
[8] = in combination with polymyxin B
[9] = polymyxin B with the named antibiotic
[10] = Acinetobacter spp. H064200250 (OXA51), +[…] PB, 2nd experiment, read-out: MBC
[11] = read-out: MBC +[…] PB, Acinetobacter spp. H064200250, +[…] polymyxin B, 1st experiment
[12] = ratio, PB 0.06 μg/ml, 1st experiment
[13] = A387, read-out: MIC +0.06 μg/ml PB, A. baumannii A387, +0.06 μg/ml polymyxin B, 1st experiment
[14] = A387, A. baumannii A387, +0.06 μg/ml PB, 2nd experiment, read-out: MBC
[15] = A387, read-out: MBC +0.06 μg/ml PB, A. baumannii A387, +0.06 μg/ml polymyxin B, 1st experiment

Cc1c(-c2cc(F)c(N)cc2F)ccn2c(=O)c(C(=O)O)cc(C3CC3)c12 [Compound 2, 8-(4-amino-2,5-difluorophenyl)-1-cyclopropyl-9-methyl-4-oxo-4H-quinolizine-3-carboxylic acid]
MIC without PB/MIC + PB (A. baumannii A473; A. baumannii A473): 64
Combination drug MIC alone [1]: 16 µg/mL
FICx [1]: 0.06
FICy [1]: 0.50
FICI ([1]; combination with polymyxin B): 0.56
Synergy ([1]; combination with polymyxin B): Partial synergy (partial synergy/addition (FICI 0.51 to 0.75))
Combination drug concentration in combination [1, 8]: 1 mg/L
Polymyxin B MIC in combination [1, 9]: 0.25 µg/mL
Combination drug MIC alone [2]: 32 µg/mL
FICx [2]: 0.13
FICy [2]: 0.50
FICI ([2]; combination with polymyxin B): 0.63
Synergy ([2]; combination with polymyxin B): Partial synergy (partial synergy/addition (FICI 0.51 to 0.75))
Synergy ([2]; combination with polymyxin B, listed as compound 2): partial synergy
Combination drug concentration in combination [2, 8]: 4 mg/L
Polymyxin B MIC in combination [2, 9]: 0.25 µg/mL
Combination drug MIC alone [3]: 4 µg/mL
FICx [3]: 0.25
FICy [3]: 0.24
FICI ([3]; combination with polymyxin B): 0.49
Synergy ([3]; combination with polymyxin B): Synergy (Synergy (FICI <0.5))
Combination drug concentration in combination [3, 8]: 1 mg/L
Polymyxin B MIC in combination [3, 9]: 0.12 µg/mL
Combination drug MIC alone [4]: 0.06 µg/mL
FICx [4]: 0.25
FICy [4]: 0.24
FICI ([4]; combination with polymyxin B): 0.49
Synergy ([4]; combination with polymyxin B): Synergy (Synergy (FICI <0.5))
Combination drug concentration in combination [4, 8]: 0.015 mg/L
Polymyxin B MIC in combination [4, 9]: 0.06 µg/mL
MIC (E. cloacae 13047): 0.25 µg/mL (≈ 0.675 µM)
MBC [5, 10]: 0.06 µg/mL (≈ 0.162 µM)
MBC [5, 11]: ≤ 0.03 µg/mL
MIC (E. faecium 19434): 0.5 µg/mL (≈ 1.35 µM)
MIC (S. aureus 101): 0.125 µg/mL (≈ 0.338 µM)
MIC without PB/MIC + PB (A. baumannii A387 [6]; +0.06 μg/ml PB, 2nd experiment): ≥32
MIC without PB/MIC + PB (A. baumannii A387 [6]; [12]): ≥16
MIC (A. baumannii A387 [6]; A387, A. baumannii A387, +0.06 μg/ml PB, 2nd experiment, read-out: MIC): ≤ 0.03 µg/mL
MIC (A. baumannii A387 [6]; [13]): ≤ 0.03 µg/mL
MIC (A. baumanii 19606): 0.06 µg/mL (≈ 0.162 µM)
MBC (A. baumannii A387 [7]; [14]): ≤ 0.03 µg/mL
MBC (A. baumannii A387 [7]; [15]): ≤ 0.03 µg/mL
IC50 (Cytotoxicity (Example 7)): 250 µM

Cc1c(-c2cc(Cl)c(N)c(Cl)c2)ccn2c(=O)c(C(=O)O)cc(C3CC3)c12 [Compound 3, 8-(3,5-dichloro-4-amino-phenyl)-1-cyclopropyl-9-methyl-4-oxo-quinolizine-3-carboxylic acid]
MIC without PB/MIC + PB (A. baumannii A473; A. baumannii A473): ≥256
MIC (A. baumannii A473; Acinetobacter baumannii, A473, A. baumannii A473, read-out: MIC): ≤ 0.03 µg/mL
MIC (E. cloacae 13047): 0.5 µg/mL (≈ 1.24 µM)
MIC (E. faecalis 29212): 0.016 µg/mL (≈ 0.0397 µM)
MBC [5, 10]: 0.06 µg/mL (≈ 0.149 µM)
MBC [5, 11]: 0.5 µg/mL (≈ 1.24 µM)
MIC (S. epidermis 12228): 0.008 µg/mL (≈ 0.0198 µM)
MIC (E. faecium 19434): 0.5 µg/mL (≈ 1.24 µM)
MIC (S. pneumoniae 49619): 0.5 µg/mL (≈ 1.24 µM)
MIC (S. aureus 101): 0.06 µg/mL (≈ 0.149 µM)
MIC without PB/MIC + PB (A. baumannii A387 [6]; +0.06 μg/ml PB, 2nd experiment): ≥32
MIC without PB/MIC + PB (A. baumannii A387 [6]; [12]): ≥32
MIC (A. baumannii A387 [6]; [13]): ≤ 0.03 µg/mL
MIC (A. baumanii 19606): 0.25 µg/mL (≈ 0.62 µM)
MBC (A. baumannii A387 [7]; [14]): ≤ 0.03 µg/mL
MBC (A. baumannii A387 [7]; [15]): 0.25 µg/mL
IC50 (Cytotoxicity (Example 7)): 50 µM

Cc1c(-c2ccc(CN)c(F)c2)ccn2c(=O)c(C(=O)O)cc(C3CC3)c12 [Compound 4, 8-(3-fluoro-4-aminomethyl-phenyl)-1-cyclopropyl-9-methyl-4-oxo-quinolizine-3-carboxylic acid]
MIC (A. baumannii A473; A. baumannii A473): 0.25 µg/mL (≈ 0.682 µM)
MIC without PB/MIC + PB (A. baumannii A473; A. baumannii A473): 32
MIC (E. cloacae 13047): 0.06 µg/mL (≈ 0.164 µM)
MIC (E. faecalis 29212): 0.125 µg/mL (≈ 0.341 µM)
MBC [5, 10]: 0.5 µg/mL (≈ 1.36 µM)
MBC [5, 11]: 8 µg/mL (≈ 21.8 µM)
MIC (S. epidermis 12228): 0.06 µg/mL (≈ 0.164 µM)
MIC (S. aureus 25923): 0.06 µg/mL (≈ 0.164 µM)
MIC (S. pneumoniae 49619): 0.125 µg/mL (≈ 0.341 µM)
MIC without PB/MIC + PB (A. baumannii A387 [6]; +0.06 μg/ml PB, 2nd experiment): 8
MIC without PB/MIC + PB (A. baumannii A387 [6]; [12]): 2
MIC (A. baumannii A387 [6]; [13]): 1 µg/mL
MIC (A. baumanii 19606): 0.25 µg/mL (≈ 0.682 µM)
MBC (A. baumannii A387 [7]; [14]): 0.5 µg/mL (≈ 1.36 µM)
MBC (A. baumannii A387 [7]; [15]): 1 µg/mL
IC50 (Cytotoxicity (Example 7)): 60 µM
